Patent US8518889B2, “Method of treating cancer with antibodies against long-form leukotriene B4 receptor BLT2” (Korea University Research & Business Foundation, priority 2007, dated 2013)

Tests used:
[1] = system: human pancreatic cancer cells; details: cited from earlier work
MCF-7 cells = details: LY255283 10 μM, epirubicin 100 ng/ml

SMILES | growth and apoptosis of human pancreatic cancer cells [1] | DNA fragmentation / cell death (MCF-7 cells)
CCCc1c(OCCCOc2cc(O)c(-c3ccc(F)cc3)cc2CC)cccc1Oc1ccccc1C(=O)O [LY293111] | inhibited the growth of and induced apoptosis of | 
COc1cccc2c1C(=O)c1c(O)c3c(c(O)c1C2=O)C[C@@](O)(C(=O)CO)C[C@@H]3O[C@H]1C[C@H](N)[C@@H](O)[C@H](C)O1 [Epirubicin] |  | only tiny increase in cell death
